Laboratory results as given in the PolyMetriX glass transition set.
± gives the standard deviation of the reports.

Structure (SMILES)	glass transition temperature
*CC1CCC(CNC(=O)c2cccc(C(=O)N*)c2)CC1 (repeat unit)	208.00 °C
*CCCCCOc1ccc(OCCCCCc2nnc(-c3ccc(-c4nnc(*)o4)cc3)o2)c(C)c1 (repeat unit)	95.00 °C
*CC(*)c1ccncc1 (repeat unit) [Poly(p-vinyl pyridine) ]	142 ± 5.4 °C
*CCOP(=O)(/N=N/c1ccc(C(=O)c2ccc(/N=N/P(=O)(O*)OCC)cc2)cc1)OCC (repeat unit)	33.00 °C
*Oc1ccc(Oc2ccc(/C(=N/c3ccc(/N=C(\c4ccccc4)c4ccc(*)cc4)cc3)c3ccccc3)cc2)cc1 (repeat unit)	176.00 °C
*C(=O)Nc1ccc(C(=O)Nc2ccc(NC(=O)c3ccc4[nH]c(-c5cccc(-c6nc7cc(*)ccc7[nH]6)c5)nc4c3)cc2)cc1 (repeat unit)	322.00 °C
*c1cccc(S(=O)(=O)NCCCCNS(*)(=O)=O)c1 (repeat unit)	82.00 °C
*CCOCCOC(=O)c1cccc(C(=O)O*)c1 (repeat unit)	16.00 °C
*CC(*)N1CCCCCC1=O (repeat unit)	174.60 °C
*Nc1ccc(NC(=O)c2ccc(C(=O)c3ccc(C(*)=O)c(C(=O)OCC)c3)cc2C(=O)OCC)cc1 (repeat unit)	275.00 °C
*/C=C(/*)C(CCCCC)[Si](C)(C)C (repeat unit)	170.00 °C
*CC(*)CCCCCC (repeat unit) [Poly(hexylethylene)]	-54.58 ± 0.8 °C
*C(=O)OCCCCCOC(=O)c1ccc(NC(=O)c2ccc(N3C(=O)c4ccc(*)cc4C3=O)cc2)cc1 (repeat unit)	129.00 °C
*c1ccc(C(=O)Oc2c(C)cc(C(c3cccnc3)c3cc(C)c(OC(=O)c4ccc(N5C(=O)CC(Nc6cccc(NC7CC(=O)N(*)C7=O)c6)C5=O)cc4)c(C)c3)cc2C)cc1 (repeat unit)	194.00 °C
*CCOC(=O)CC(C)O* (repeat unit)	-37.10 °C
*c1ccc(-c2nc3cc(S(=O)(=O)c4ccc5nc(-c6ccccc6)c(-c6ccc(-n7c(=O)c8cc9c(=O)n(*)c(=O)c9cc8c7=O)cc6)nc5c4)ccc3nc2-c2ccccc2)cc1 (repeat unit)	186.00 °C
*CCCCOc1ccc(OC(=O)c2ccc(C(=O)Oc3ccc(O*)cc3)c(C(=O)OCC=C)c2)cc1 (repeat unit)	56.00 °C
*OC(=O)OCCOCCOC(=O)OC1COC2C(*)COC12 (repeat unit)	46.50 °C
*CC(*)(C)C(=O)Oc1c(Cl)c(Cl)c(Cl)c(Cl)c1Cl (repeat unit)	110.00 °C
*Nc1ccc(NC(=O)c2ccc(NC(=O)CCCCCCCCC(=O)Nc3ccc(C(*)=O)cc3)cc2)cc1C(=O)OCCCCCCCCCCCCCCCC (repeat unit)	220.00 °C
*C(=O)Nc1ccc(Oc2ccc(Oc3ccc(NC(=O)c4ccc5c(c4)C(=O)N(c4ccc(Oc6ccc(N7C(=O)c8ccc(*)cc8C7=O)cc6)cc4)C5=O)cc3)cc2)cc1 (repeat unit)	260.00 °C
*OC(=O)OCC(OC)C(COC(=O)OC1COC2C(*)COC12)OC (repeat unit)	61.00 °C
*Nc1ccc(C(c2ccc(NC(=O)c3cccc(C(*)=O)c3)cc2)(P2(=O)Oc3ccccc3-c3ccccc32)P2(=O)Oc3ccccc3-c3ccccc32)cc1 (repeat unit)	230.00 °C

Structure (SMILES)	glass transition temperature
*C1C(=O)N(CCCOc2ccc(-c3ccc(C#N)cc3)cc2)C(=O)C1* (repeat unit)	130.00 °C
*CCCCCCCCOc1ccc(/C=C2\CC/C(=C\c3ccc(OCCCCCCCCOP(=O)(O*)OC)c(OC)c3)C2=O)cc1OC (repeat unit)	73.00 °C
*CC(*)c1ccc(C[Si](C)(C)C)cc1 (repeat unit)	82.00 °C
*c1cccc(P(=O)(c2ccccc2)c2cccc(N3C(=O)c4ccc(Oc5ccc6c(c5)C(=O)N(*)C6=O)cc4C3=O)c2)c1 (repeat unit)	251.00 °C
*c1cccc(C(=O)Nc2ccc(Oc3cccc(Oc4ccc(NC(=O)c5cccc(N6C(=O)c7ccc(-c8cccc9c8C(=O)N(*)C9=O)cc7C6=O)c5)cc4)c3)cc2)c1 (repeat unit)	253.00 °C
*C(=O)Nc1cccc(NC(=O)c2ccc3c(c2)C(=O)N(c2cc(-c4nc5ccccc5s4)cc(N4C(=O)c5ccc(*)cc5C4=O)c2)C3=O)n1 (repeat unit)	358.00 °C
*C1CCC(N2C(=O)c3ccc(-c4ccc5c(c4)C(=O)N(*)C5=O)cc3C2=O)CC1 (repeat unit)	360.00 °C
*Oc1ccc(C2(c3ccc(OC(*)=S)cc3)CCC(C)CC2)cc1 (repeat unit)	168.00 °C
*OCC(F)(F)C(F)(F)C(F)(F)COc1nc(F)c(F)c(OCC(F)(F)C(F)(F)C(F)(F)COc2c(F)c(*)nc(F)c2F)c1F (repeat unit)	-10.00 °C
*CCC(C)C(*)(C)C(=O)OC (repeat unit)	45.00 °C
*Oc1ccc(C2(c3ccc(OC(=O)c4ccc(C(*)=O)cc4)cc3)c3ccccc3-c3ccccc32)cc1 (repeat unit)	285.00 °C
*c1ncnc(N(CCCCCCN(*)c2ccccc2)c2ccccc2)n1 (repeat unit)	72.00 °C
*CC1CCC(COC(C)OC(=O)c2cccc(C(=O)OC(C)O*)c2)CC1 (repeat unit)	30.00 °C
*CC(*)c1ccc(B(Oc2ccc(-c3ccc(OC)cc3)c3cccnc23)c2ccc(C(C)(C)C)cc2)cc1 (repeat unit)	220.00 °C
*Oc1ccc(Oc2ccc(NC(=O)c3ccc(Oc4ccc(C(C)(C)c5ccc(C(C)(C)c6ccc(Oc7ccc(C(=O)Nc8ccc(*)cc8)cc7)cc6)cc5)cc4)cc3)cc2)cc1 (repeat unit)	165.00 °C
*CC(*)(C)C(=O)OCC(F)(F)F (repeat unit) [Poly(2,2,2-trifluoroethyl methacrylate)]	74.42 ± 0.8 °C
*Oc1c(C)cc(C2(c3cc(C)c(OC(=O)c4ccc(C(*)=O)cc4)c(C)c3)CCC3CCCCC3C2)cc1C (repeat unit)	287.00 °C
*O[Si](C)(C=C)O[Si](C)(C=C)O[Si](C)(C)c1ccc([Si](*)(C)C)cc1 (repeat unit)	-86.00 °C
*/C=C(/*)c1ccccc1C[Si](C)(C)C (repeat unit)	170.00 °C
*C[Si](*)(C)c1ccccc1 (repeat unit)	28.00 °C
*CC(*)CNc1ccc([N+](=O)[O-])cc1C (repeat unit)	151.00 °C
*c1ccc(/C=C/c2ccc(-n3c(=O)c4cc5c(=O)n(*)c(=O)c5cc4c3=O)cc2S(=O)(=O)[O][Na])c(S(=O)(=O)[O][Na])c1 (repeat unit)	228.00 °C
*C[Si](*)(CCCCC)CCCCC (repeat unit)	-55.00 °C

Structure (SMILES)	glass transition temperature
*O[Si](*)(C)CCCOc1ccc(C(=O)Oc2ccc(-c3ccc(OC(=O)c4cc(OCCCCCCCCCCCC)c(OCCCCCCCCCCCC)c(OCCCCCCCCCCCC)c4)cc3)cc2)cc1 (repeat unit)	48.00 °C
*Oc1ccc(CC(NC(=O)Cc2ccc(OC(=O)CCC(*)=O)cc2)C(=O)OCCCCCC)cc1 (repeat unit)	59.00 °C
*/C(C)=C(/*)SCC (repeat unit)	160.00 °C
*CCOC(=O)Nc1ccc(Cc2ccc(NC(=O)OCCOc3ccc(C(C)(C)c4ccc(O*)cc4)cc3)cc2)cc1 (repeat unit)	127.00 °C
*CC(*)(C)C(=O)OC(C(F)(F)F)C(F)(F)F (repeat unit)	75.00 °C
*CC(*)C(=O)OCCC(C)OC (repeat unit)	-56.00 °C
*CCN(*)C (repeat unit)	-31.00 °C
*Oc1ccc(C(=O)NNC(=O)c2ccc(C(=O)NNC(=O)c3ccc(OC(=O)c4cccc(C(*)=O)c4)cc3)cc2)cc1 (repeat unit)	175.00 °C
*Cc1ccc(CNC(=O)CCCCCCCCCCC(=O)N*)cc1 (repeat unit)	105.00 °C
*CCCCCCCCCCc1ccc(-c2c(-c3ccccc3)cc(-c3cccc(-c4cc(-c5ccccc5)c(-c5ccc(*)cc5)c(-c5ccccc5)c4-c4ccccc4)c3)c(-c3ccccc3)c2-c2ccccc2)cc1 (repeat unit)	180.00 °C
*C#Cc1cccc(C#C[SiH](*)c2ccccc2)c1 (repeat unit)	85.00 °C
*CCN(*)C(=O)CCCCCCC (repeat unit)	10.00 °C
*Oc1ccc(CC(NC(=O)CCc2ccc(OC(=O)COCC(*)=O)cc2)C(=O)OCCCC)cc1 (repeat unit)	64.00 °C
*CC(*)(C)C(=O)OCCCCCCOc1ccc(OC(=O)c2ccc(OCCCCCC)cc2)cc1 (repeat unit)	16.00 °C
*Nc1ccc(/C=C/c2ccc(NC(=C(C#N)C#N)c3ccc(C(*)=C(C#N)C#N)cc3)cc2)cc1 (repeat unit)	250.00 °C
*c1cc(C)c(/N=C/c2ccc(OCc3ccc(COc4ccc(/C=N/c5cc(C)c(N6C(=O)c7ccc8c9ccc%10c%11c(ccc(c%12ccc(c7c8%12)C6=O)c%119)C(=O)N(*)C%10=O)cc5C)cc4OC)cc3)c(OC)c2)cc1C (repeat unit)	145.00 °C
*c1ccc(Oc2ccc(-c3ccc(Oc4ccc(N5C(=O)c6ccc(Oc7ccc8cc(Oc9ccc%10c(c9)C(=O)N(*)C%10=O)ccc8c7)cc6C5=O)cc4)cc3)cc2)cc1 (repeat unit)	230.00 °C
*CC(*)c1ccc(C(C)(O)CCCC)cc1 (repeat unit)	90.00 °C
*C1C(=O)N(c2ccccc2C(=O)OCCCC)C(=O)C1* (repeat unit)	181.00 °C
*Cc1cccc(CNC(=O)CCC2(CCC(=O)N*)c3ccccc3-c3ccccc32)c1 (repeat unit)	150.00 °C
*C(=O)Nc1ccc(Oc2cccc(NC(=O)c3ccc4c(c3)C(=O)N(c3ccc(-c5sc(-c6ccc(N7C(=O)c8ccc(*)cc8C7=O)cc6)c(-c6ccccc6)c5-c5ccccc5)cc3)C4=O)c2)cc1 (repeat unit)	315.00 °C
*CC(*)(C)C(=O)OCCS(=O)CC (repeat unit)	25.00 °C
